Results reported in patent US7666414B2, “Methods for treating prostate cancer using modified antibodies to prostate-specific membrane antigen” (Cornell Research Foundation, Inc., priority 2001, dated 2010).

Tests used:
[1] = tested on: micronucleated polychromatic erythrocytes; settings: 30, 48, and 90 mg/m^2
[2] = tested on: PSMA-positive CWR22 xenografts; test: Efficacy in PSMA-positive CWR22 xenografts; format: in vivo, C.B-17 scid mice; settings: for TGD: dosing interval study, five cycles
Method: Experiment: Male SCID mice were implanted by serial passage of CWR22 prostate tumor xenograft. […] All treatments were given intravenously. Tumor growth and animal health were continually monitored throughout the study with tumor growth measured every 3 days.
Experiment: Male C.B-17 SCID mice bearing CWR22 xenografts approximately 200 mm^3 in size received IV injections (200 μL constant volume) of the test articles according to the dose and schedule as shown in Table 22.
Male C.B-17 scid mice bearing CWR22 xenografts approximately 200 mm^3 in size received IV injections (200 μL constant volume) of the test articles according to the dose and schedule shown in the Table 23.
The objective of this study was to determine how much the dosing interval could be increased at this dosage before a loss of efficacy in terms of TGD would be observed. […] The growth delays for the other schedules were: q7d, 53.0 days; q21d, 48.0 days; and q28d, 26.9 days. Similar to other studies using the CWR22 xenograft model, no curative responses were observed, with all tumors eventually resuming growth (FIG. 18).
Experiment: Male SCID mice were implanted by serial passage of CWR22 prostate tumor xenograft. […] All treatments were given intravenously and on a schedule of every three days for 5 doses. Tumor growth and animal health were continually monitored throughout the study with tumor growth measured every 3 days.
Experiment: Male SCID mice were implanted by serial passage of CWR22 prostate tumor xenograft. […] All treatments were given intravenously and on a schedule of every seven days for 5 doses. Tumor growth and animal health were continually monitored throughout the study with tumor growth measured every 3 days.

[3] = Pharmacokinetics of deJ591 and deJ591-DM1 in cynomolgus monkeys
[4] = tested on: PSMA-positive 22RV1 xenografts; test: Efficacy in castrate or intact scid mice bearing androgen-independent 22RV1 xenograft; format: in vivo, C.B-17 scid mice; settings: 12.93 mg/kg
Method: Prostate tumors can be broadly classified as either androgen-dependent or androgen-independent. […] The 22RV1 cell line was originally developed as androgen-independent and can be grown as a xenograft in C.B-17 scid mice that have been left either intact or castrated. […] C.B-17 scid mice bearing CWR22 xenografts approximately 200 mm^3 in size received IV injections (200 μL constant volume) of the test articles according to the dosage and schedule shown in the Table 24.

[5] = study CTBR 57355, deJ591-DM1 6 mg/kg (72 mg/m^2)
[6] = study CTBR 57355, deJ591-DM1 10 mg/kg (120 mg/m^2)
[7] = study CTBR 57355, deJ591-DM1 16 mg/kg ([…]^2)
[8] = study CTBR 57355, deJ591-DM1 30 mg/kg (360 mg/m^2)
[9] = study CTBR 57355, mean over dosages
[10] = study KLA W-171, deJ591-DM1 6 mg/kg (72 mg/m^2)

## deJ591-DM1: deJ591 conjugated via SPP disulfide linker to the maytansinoid DM1, DM1/antibody ratio about 3.5
[1]
  increases in micronucleated polychromatic erythrocytes: positive
[2]; 7.25 mg/kg every seven days for 5 doses
  return to normal growth kinetics following the last dose: approximately 10 days
[2]; 7.28 mg/kg (120 μg/kg DM1-equivalents), q3dX5, IV
  Tumor Growth Delay: 27.1 days
[2]; 7.28 mg/kg (120 μg/kg DM1-equivalents), qdX5, IV
  Tumor Growth Delay: 19.6 days
[2]; 14.5 mg/kg every seven days for 5 doses
  tumor growth: suppression of tumor growth with some reduction from the initial tumor volume
[2]; 14.5 mg/kg, 7 and 14 day dosing interval
  tumor growth: apparent block in tumor growth with a resumption of normal growth kinetics approximately 30 days after the last dose
[2]; 14.5 mg/kg, 21 or 28 day dosing interval
  tumor growth: slowed growth
[2]; 14.56 mg/kg (240 μg/kg DM1-equivalents), q3dX5, IV
  Tumor Growth Delay: 36.7 days
[2]; 14.56 mg/kg (240 μg/kg DM1-equivalents), qdX5, IV
  Tumor Growth Delay: 26.9 days
[2]; Comparison II, 4.8 mg/kg (90 μg/kg DM1-equivalents), q3dX5
  Tumor Growth Delay: 31.9 days
[2]; Comparison II, 6.5 mg/kg (120 μg/kg DM1-equivalents), q3dX5
  Tumor Growth Delay: 37.8 days
[2]; Comparison II, 6.5 mg/kg (120 μg/kg DM1-equivalents), q7dX5
  Tumor Growth Delay: 33.9 days
[2]; Comparison II, 9.7 mg/kg (180 μg/kg DM1-equivalents), q3dX5
  Tumor Growth Delay: 42.7 days
[2]; Comparison II, 12.93 mg/kg (240 μg/kg DM1-equivalents), q3dX5
  Tumor Growth Delay: 46.4 days
[2]; Comparison II, 12.93 mg/kg (240 μg/kg DM1-equivalents), q7dX5
  Tumor Growth Delay: 66.8 days
[2]; all dosages, Comparison I
  associated toxicity: less for all dosages of deJ591-DM1 relative to maytansine alone
[2]; doses and schedules of Comparison I
  curative effect: non-curative
[2]; 12.93 mg/kg, q7d
  TGD: 53.0 days
[2]; 12.93 mg/kg, q14d
  TGD: 75.7 days
[2]; 12.93 mg/kg, q21d
  TGD: 48.0 days
[2]; 12.93 mg/kg, q28d
  TGD: 26.9 days
[2]; mouse, in vivo
  Efficacious dosage in SCID mouse xenografts, DM1-Equivalents received: ~0.72 mg/m^2
[2]; reference standard batch
  In vivo activity - mouse xenograft model: Delays tumor growth
[2]; second course, 12.93 mg/kg
  effect on large tumors, 500 to 2000 mm^3: potent regressions
[3]; [5]
  Tmax, analyte Total deJ591: 60 min
  Tmax, analyte deJ591-DM1: 48 min
  AUC, analyte Total deJ591: 17200 µg·h/mL
  AUC, analyte deJ591-DM1: 6720 µg·h/mL
[3]; [6]
  Tmax, analyte deJ591-DM1: 36 min
  t1/2, analyte Total deJ591: 200 h
  AUC, analyte Total deJ591: 31700 µg·h/mL
  AUC, analyte deJ591-DM1: 10600 µg·h/mL
[3]; [7]
  Tmax, analyte Total deJ591: 54 min
  Tmax, analyte deJ591-DM1: 48 min
  AUC, analyte Total deJ591: 44400 µg·h/mL
  AUC, analyte deJ591-DM1: 15600 µg·h/mL
[3]; [8]
  Tmax, analyte deJ591-DM1: 48 min
  AUC, analyte Total deJ591: 95000 µg·h/mL
  AUC, analyte deJ591-DM1: 33500 µg·h/mL
[3]; [9]
  Tmax, analyte Total deJ591: 54 min
  Tmax, analyte deJ591-DM1: 42 min
[3]; [10]
  Tmax, analyte Total deJ591: 300 min
  Tmax, analyte deJ591-DM1: 60 min
  AUC, analyte Total deJ591: 19900 µg·h/mL
  AUC, analyte deJ591-DM1: 5020 µg·h/mL
[4]; Castrate Mice, q3dX5
  Tumor Growth Delay: 26.3 days
[4]; Intact Mice, q3dX5
  Tumor Growth Delay: 13.1 days
[4]; Intact Mice, q7dX5
  Tumor Growth Delay: 7.8 days
